From US20170304530A1, “INFUSION PREPARATION” (priority 2010, published 2017) come the findings set out here.

Counter-ions that a name gives are not always drawn.

The data set is described as follows: Remaining amount of each vitamin after 6 months storage at room temperature, measured by HPLC. The class given is physicochemical. The note with it: vitamin in Example 3 infusion preparation before mixing, stored at room temperature for 6 months. Here is the method:
The infusion preparation (before mixing the first-chamber. infusion and the second-chamber infusion) was stored at room temperature for 6 months. Thereafter, the amount of each vitamin component contained in the first-chamber infusion or the second-chamber infusion was measured using HPLC. […] As is clear from the results, each of the vitamin components can be stably present in the infusion preparation even after 6 months storage.
On to `O=C1O[C@H]([C@@H](O)CO)C(O)=C1O` [Ascorbic acid], for which the “Remaining rate after 6 months storage (%)” value (shortened to “Remaining rate … (%)”) amounted to 99.9%.

Regarding `O=C(O)CCCC[C@@H]1SC[C@@H]2NC(=O)N[C@@H]21` [Biotin], the “Remaining rate … (%)” value came out at 97.8%. With `C=C1CC[C@H](O)C/C1=C/C=C1\CCC[C@]2(C)[C@@H]([C@H](C)CCCC(C)C)CC[C@@H]12` [Cholecalciferol] the figure was 100.5%; with `Nc1nc2ncc(CNc3ccc(C(=O)N[C@@H](CCC(=O)O)C(=O)O)cc3)nc2c(=O)[nH]1` [Folic acid], 100.0%.

For the compound `NC(=O)c1cccnc1` [Nicotinamide], the “Remaining rate … (%)” value is 99.6%. With `CC(C)(CO)[C@@H](O)C(=O)NCCCO` [Panthenol] the figure was 100.4%.

For `CC1=C(C/C=C(\C)CCC[C@H](C)CCC[C@H](C)CCCC(C)C)C(=O)c2ccccc2C1=O` [Phytonadione], the “Remaining rate … (%)” value turned out to be 101.5%.

As for `Cc1ncc(CO)c(CO)c1O.Cl` [Pyridoxine hydrochloride], the “Remaining rate … (%)” value was 99.3%. Under `Cc1cc2nc3c(=O)[nH]c(=O)nc-3n(C[C@H](O)[C@H](O)[C@H](O)COP(=O)(O)O)c2cc1C` [Riboflavin sodium phosphate] stands 100.1%.

As for `Cc1ncc(C[n+]2csc(CCO)c2C)c(N)n1` [Thiamine chloride hydrochloride], the “Remaining rate … (%)” value is reported as 98.7%.

In the case of `CC(=O)Oc1c(C)c(C)c2c(c1C)CCC(C)(CCC[C@H](C)CCC[C@H](C)CCCC(C)C)O2` (stereo partly drawn) [Tocopherol acetate], the “Remaining rate … (%)” value is reported as 99.0%. With Cyanocobalamin the figure was 103.2%.
